Laboratory results reported in US8378117B2 (priority 2005, dated 2013).

What was measured:
Male CD-1 mice [1] = assay: Postoperative inflammatory ileus, microscopic myeloperoxidase histological examination; format: in vivo; conditions: Surgical Manipulation, 24 hr post-laparotomy, mean ± SE
Method: (§1) Male CD-1 mice were anesthetized by inhaled isoflurane and prepared for surgery. The abdomen was shaved of hair and treated with antiseptic solution. The animal was then covered with a surgical drape, leaving the abdomen exposed. A mid-line laparotomy was performed, and the entire small intestine was exteriorized onto the sterile drape. Using two moistened, sterile, cotton-tipped applicators, the small intestine was then gently compressed along its length from the ligament of Treitz to the ileo-cecal junction. The small intestine was then returned to the abdominal cavity and the incision closed by two layers of sutures.
(§2) Age-matched mice were randomly assigned to groups (6 animals per group) and injected intraperitoneally (i.p.) with “vehicle” (a mixture of 5% ethanol/5% Tween80/90% of 5% dextran in water w/v) containing various doses of a test compound 1 hr prior to laparotomy. The second group was injected intraperitoneally with vehicle. The third group was administered intragastrically (1 mg/kg) a mixture (1 mg/mL) of dexamethasone in 20% hydroxypropyl methyl dextran in water, once per day for two days prior to surgery and 5 hrs post-laparotomy. The fourth group received no intervention and served as naïve controls.
Microscopic histological examination was performed on harvested tissues 24 hr post-laparotomy. […] Hanker-Yates reagent (Polysciences Inc.) forms an insoluble, blue-black polymer in the presence of hydrogen peroxide and peroxidase enzyme activity. Segments of mid small bowel were collected from the centrifuge tubes described in the previous section. Whole mounts of the muscle layer were prepared by opening the tube of bowel along the mesenteric border and pinning the tissue flat in a Sylgard™ lined Petri dish with the mucosal surface facing upward. The tissue was stretched to 1.5 times its length and 2.5 times its width, and the mucosa removed by fine dissection. The remaining muscularis whole mounts were then fixed with 100% ethanol for 45 min, washed 3 times with PBS, and incubated for 20 min in PBS containing 0.1% hydrogen peroxide and 1 mg/ml Hanker-Yates reagent (Polysciences, Inc). The reagent is polymerized in the presence of hydrogen peroxide and peroxidase activity to form a blue-black deposit. Following a second wash with PBS, the whole mounts were mounted on glass slides, cover-slipped, and viewed on an optical microscope. Myeloperoxidase containing leukocytes were counted in 6 to 8 adjacent 200× optical fields, and the mean cell counts were calculated and recorded.
The presence of myeloperoxidase (MPO) positive immune cells in the intestinal muscularis is rare in normal animals.

Male CD-1 mice [2] = assay: Postoperative inflammatory ileus, upper gastrointestinal transit (FITC-dextran, Geometric Center); format: in vivo; conditions: Surgical Manipulation, 24 hr post-laparotomy, mean ± SE, scale 1 to 15
Method: as §1, §2
Upper gastrointestinal transit was measured 24 hr post-laparotomy. Mice were fed a test meal consisting of 150 μL of FITC-dextran solution (5 mg/mL of 70,000 molecular weight dextran conjugated to fluorescein-isothiocyanate in 0.5% hydroxypropyl methylcellulose/deionized water) administered intragastrically by an 18 gauge feeding tube. Following oral administration of the FITC-dextran test meal, animals were returned to their home cages. Following a 45 min test period, mice were euthanized by isoflurane overdose and exsanguination. The entire gastrointestinal tract from the lower esophageal sphincter to the terminal colon was removed. The bowel segments were opened along the mesenteric border. The tissue and luminal contents of the stomach, 10 equal segments of small intestine, the cecum, and 3 equal segments of colon were placed in individual Eppendorf tubes containing 1 ml of PBS. The tissue was vigorously mixed on a tabletop vortex, and solid materials were pelletized by centrifugation. Aliquots of the cleared supernatant were read in duplicate on a 96-well fluorescence plate reader to quantify the magnitude of the fluorescent signal in each segment of bowel.
These values were used to calculate the Geometric Center (REF), which is defined as the weighted average distribution of the fluorescent signal along the gastrointestinal tract: GC=Σ(% of total fluorescent signal per segment×segment number)/100,
Higher GC values represent faster rates of transit on scale of 1 to 15.
Surgical manipulation of the small bowel leads to a significant delay in gastrointestinal transit, going from a Geometric Center of 8.4 in normal mice to 3.3 in vehicle treated animals.

| SMILES | MPO-Positive Cells (Per 200× Optical Field) (Male CD-1 mice [1]; dose 10 mg/kg) | MPO-Positive Cells (Per 200× Optical Field) (Male CD-1 mice [1]; dose 30 mg/kg) | Geometric Center (upper gastrointestinal transit) (Male CD-1 mice [2]; dose 10 mg/kg) | Geometric Center (upper gastrointestinal transit) (Male CD-1 mice [2]; dose 30 mg/kg) | MPO-Positive Cells (Per 200× Optical Field) (Male CD-1 mice [1]; dose 1 mg/kg) | MPO-Positive Cells (Per 200× Optical Field) (Male CD-1 mice [1]; dose 3 mg/kg) | Geometric Center (upper gastrointestinal transit) (Male CD-1 mice [2]; dose 1 mg/kg) | Geometric Center (upper gastrointestinal transit) (Male CD-1 mice [2]; dose 3 mg/kg) |
| --- | --- | --- | --- | --- | --- | --- | --- | --- |
| C[C@H](NS(=O)(=O)/C=C/c1n[nH]c2c1CCCCC2Cc1cccc(F)c1)c1ccccc1 (single isomer, unassigned) [Cpd 232, (2E)-2-[(8R*)-8-(3-fluoro-benzyl)-1,4,5,6,7,8-hexahydro-cycloheptapyrazol-3-yl]-ethenesulfonic acid [(1S)-1-phenyl-ethyl]-amide] | 127.6 ± 25.7 | 60.2 ± 20.8 | 4.0 ± 0.59 | 5.6 ± 0.16 | – | – | – | – |
| C[C@H](NS(=O)(=O)/C=C/c1n[nH]c2c1CCCC/C2=C\c1ccc(Cl)cc1)c1ccccc1 [Cpd 237, (2E,8E)-2-[8-(4-chloro-benzylidene)-1,4,5,6,7,8-hexahydro-cycloheptapyrazol-3-yl]-ethenesulfonic acid [(1S)-1-phenyl-ethyl]-amide] | 77.7 ± 25.7 | 60.3 ± 20.9 | 4.7 ± 0.40 | 5.6 ± 0.76 | 57.8 ± 17.0 | 41.3 ± 9.4 | 3.8 ± 0.40 | 3.6 ± 0.53 |
